The target of assay [1] is T1, 5-hydroxytryptamine receptor 3A/3B (Mus musculus, UniProt P23979+Q9JHJ5).
T1 sequence (P23979 whole entry): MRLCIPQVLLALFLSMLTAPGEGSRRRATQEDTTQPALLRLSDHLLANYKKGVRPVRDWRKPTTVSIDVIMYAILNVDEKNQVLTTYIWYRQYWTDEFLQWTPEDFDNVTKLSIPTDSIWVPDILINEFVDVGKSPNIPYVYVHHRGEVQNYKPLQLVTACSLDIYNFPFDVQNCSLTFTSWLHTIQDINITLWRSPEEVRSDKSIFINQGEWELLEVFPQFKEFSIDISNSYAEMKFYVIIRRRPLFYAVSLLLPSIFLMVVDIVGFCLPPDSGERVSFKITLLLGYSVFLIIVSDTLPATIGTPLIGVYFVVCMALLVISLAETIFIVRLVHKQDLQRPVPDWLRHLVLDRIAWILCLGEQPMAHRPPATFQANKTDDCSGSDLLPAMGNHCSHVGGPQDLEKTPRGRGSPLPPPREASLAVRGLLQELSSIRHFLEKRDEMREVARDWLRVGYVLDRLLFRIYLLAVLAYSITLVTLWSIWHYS
T1 sequence (Q9JHJ5 whole entry): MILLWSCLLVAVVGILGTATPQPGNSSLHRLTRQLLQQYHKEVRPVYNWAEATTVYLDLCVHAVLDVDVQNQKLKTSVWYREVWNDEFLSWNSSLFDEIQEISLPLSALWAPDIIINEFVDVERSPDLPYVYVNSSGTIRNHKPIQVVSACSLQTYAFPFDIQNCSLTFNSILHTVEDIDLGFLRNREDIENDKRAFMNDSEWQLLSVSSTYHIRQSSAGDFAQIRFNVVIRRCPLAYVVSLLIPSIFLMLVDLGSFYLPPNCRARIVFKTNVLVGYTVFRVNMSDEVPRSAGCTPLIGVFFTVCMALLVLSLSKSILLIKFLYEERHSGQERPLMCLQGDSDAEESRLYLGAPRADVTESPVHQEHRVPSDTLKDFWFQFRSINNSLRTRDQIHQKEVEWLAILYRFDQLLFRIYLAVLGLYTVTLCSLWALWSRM
The experiment in a line: Compound was evaluated for binding to Serotonin 5-hydroxytryptamine 3 receptor in N1E cells using [3H]- -Tropisetron as radioligand.

In assay [2] the target is T1, 5-hydroxytryptamine receptor 3A/3B. The experiment in a line: Compound was evaluated for binding to 5-hydroxytryptamine 3 receptor in N1E cells using [3H]- -Tropisetron as radioligand.

3 compounds from BindingDB's records for doi:10.1016/S0960-894X(00)80170-5 (1992) can be followed below.

In the case of `CN1C2CC(OC(=O)c3c[nH]c4ccccc34)CC1C1OC12` (stereo not drawn), the Kd (commonly a measure of binding affinity in units of concentration) in assay [1] came out at 0.631 nM. Compound `CN1[C@@H]2CC[C@H]1C[C@@H](OC(=O)c1c[nH]c3ccccc13)C2` [(3-ENDO)-8-METHYL-8-AZABICYCLO[3.2.1]OCT-3-YL 1H-INDOLE-3-CARBOXYLATE] showed a Kd in assay [1] of 0.794 nM. `Cc1nccn1CC1CCc2c(c3ccccc3n2C)C1=O` (stereo not drawn) [NSC_68647] displayed a Kd in assay [2] of 20 nM.
